Non-standard residues stand in square brackets, D forms with d. βAla = NCCC(=O)O
Key:
carnitine = assay: Carnitine levels in mouse tissues; format: in vivo, mice; conditions: 250 mg/kg i.p. for 5 consecutive days
Experimental: Male ICR mice were injected i.p. with 250 mg/kg DY-65 for 5 consecutive days. Half an hour after the last injection lung, heart, skeletal muscle (femural), brain, liver, kidney and blood were removed, homogenized (100 mg tissue in 200 μl distilled water), centrifuged and filtrated through 30K Microcon® filter. Carnitine analysis was carried out by a commercial kit (BioVision, catalogue number K642-100). n=4 for each group.

[1] = tested on: carrageenan-induced hind paw swelling; assay: Carrageenan-induced hind paw swelling; format: in vivo, mice; conditions: 150 mg/kg i.p. 30 min prior to carrageenan; for swelling reduction compared to control: control saline only
Experimental: The above new five peptides were examined for anti-inflammatory activity, and their activity was compared to that of peptide CB3. Male ICR mice received an i.p. administration of each of the tested peptide (150 mg/kg) 30 min prior to the injection of carrageenan into the sub-plantar area of both of the animal's hind paws. Carrageenan was dissolved in water at concentration of 3 mg/ml and injected at a volume of 50 μl. Hind paw thickness was measured by Mitutoyo® micrometer before carrageenan injection and afterward at intervals of 1 hour between each measurement. Swelling was calculated as the difference between the thickness of the hind paw measured at each time interval and its size at time 0 (before carrageenan injection). n=6 foot pads (3 animals) for each group.

p38 MAP Kinase = assay: Inhibition of oxidative stress (auranofin)-induced p38 phosphorylation in SH-SY5Y cells; format: cell-based, Human; conditions: auranofin 5 μM
Experimental: Human neuroblastoma SH-SY5Y cells were maintained in Dulbecco's modified Eagle's medium (DMEM, Invitrogen) supplemented with 10% fetal bovine serum (Invitrogen), 100 μg/ml streptomycin and 100 U/ml penicillin G (Gibco). Cells were plated at a density of 6.25×10^4/cm^2 and incubated for 24 hours, after which they were exposed to different treatments.
SH-SY5Y cells were plated on 96-well plates and treated with Auranofin (AuF) (5 μM) for 30 min. Then the cells were washed with PBS and treated with either one of the peptides at the indicated concentrations. Twenty-four hours later, the cells were fixed with glutaraldehyde in final concentration of 0.5% for 10 min. Cells were washed 3 times with DDW dried over night, and washed once with borate buffer (0.1M, pH 8.5). The fixed cells were stained with 200 μl of 1% methylene blue dissolved in borate buffer for 1 hour. After extensive washing and drying, the color was extracted with 200 μl of 0.1 M HCl for 1 h at 37° C. and absorbance was read in spectrophotometer at 630 nm.
Twenty to thirty micrograms of protein samples were loaded on 10-12% SDS-PAGE gels. The proteins were then transferred electrophoretically to nitrocellulose (Whatman, Germany). The blots were blocked by incubation for 1 h at room temperature (RT) in TBS-T (25 mM Tris-HCl pH 7.4, 0.9% NaCl and 0.02% Tween-20) with 4% Difco skim milk (BD, USA), and incubated over-night at 4° C. with the primary antibody: pERK1/2 (Thr 202/Tyr204), mouse mAb, (1:6,000); p-SAPK/JNK (Thr183/Tyr185), rabbit mAb; SAPK/JNK, mouse mAb; p-p38MAP Kinase (Thr180/Tyr182), rabbit mAb; cleaved caspase 3, rabbit mAb. All antibodies were from Cell Signaling Tech. USA, used at 1:1000. Purified b Catenin, mouse mAb, (1:10,000; BD Transduction Laboratories, USA) diluted in 5% BSA, 0.04% Azide in TBS-T. Proteins were detected with Anti-Mouse or Anti-Rabbit IgG-HRP linked antibody (1:10,000; Cell Signaling, Tech. USA).

HaCaT cells = assay: UVB-induced cytotoxicity in HaCaT cells (MTT); format: cell-based; conditions: UVB 0.05 J/cm^2; MTT after 72 hours
Experimental: HaCaT cells were seeded in 96-wells plate (10×10^4/ml) and incubated in 37° C., 6% CO2 for 24 hours. Cells were incubated with the peptides at the indicated concentrations for 2.5 hours and washed (PBS). Then 100 μl PBS were added to each well followed by UVB irradiation (0.05 J/cm^2). Cells were washed with PBS and incubated with culture medium (DMEM, 100 μl) containing the peptides. MTT assay was carried out after 72 hours.

[2] = tested on: cellularity of the peritoneal exudates; assay: Ovalbumin-induced hypersensitivity (allergic peritonitis): peritoneal cellularity; format: in vivo, mice; conditions: 125 mg/kg i.p. on days 13, 14, 15
Experimental: Male BALB/c mice (6-8 weeks old) were housed under specific pathogen-free conditions and maintained on a 12-hour light/dark cycle, with food and water ad libitum. All materials and drugs were obtained from Sigma, Inc.
Mice in Groups A, B, C, and E (n=10 per group) were sensitized with intraperitoneal (i.p.) 200 μl of sterile PBS containing 100 μg ovalbumin (OVA) and 1.6 mg alum on days 0 and 7, and challenged with intraperitoneal (i.p.) 200 μl of sterile PBS containing 10 μg ovalbumin (OVA) on day 14 in order to induce an experimental model of allergic peritonitis. Mice in Group F (n=10) were injected with intraperitoneal (i.p) 200 μl sterile PBS (“sham” group, no OVA and no Alum).
Mice in Groups A, B, and C, were treated with 150 μl of sterile PBS containing peptides DY-66, DY-65 and DY-70, respectively, at a dose of 125 mg/kg on days 13, 14, and 15 via an i.p. route of administration.
Mice in Groups E and F were treated with 150 μl of sterile PBS on days 13, 14, and 15 via an i.p. route of administration. On day 14 the test articles (or PBS vehicle) were injected 30 minutes before injecting the OVA.

ROS = ROS levels in C57Bl/6 mice after LPS injection; format: in vivo; conditions: 6 h after LPS
Experimental: C57BL/6 female mice (7-8 weeks old) were injected i.p. with the peptide or PBS on days −3, −2, −1 at a dose of 50 mg/kg or with PBS alone (6 mice in each group). On day zero all the mice were injected i.p. with 200 μg/mouse of LPS and 45 min. later they were injected i.p. with 150 mg/kg of the peptide. Another group of 3 mice served as normal untreated mice. […]

[3] = Metal chelation: ferric ion binding by mass spectra (ESI); conditions: 0.83 mM peptide, 1.66 mM FeCL3, 1 hour room temperature
Experimental: All five peptides were examined for their ability to bind copper and ferric ions. 0.83 mM of each peptide were mixed with 1.66 mM of either FeCL3 or CuSO4. The mixtures were incubated for 1 hour at room temperature and further kept at ° 4 C until analysis. Samples were analyzed by mass spectra (ESI).

With “N-acetyl-Cys-Lys-Met-Cys-NH2 (Ac-CKMC-NH2; cysteine pairing not given here) [DY-65]” the “increase in the level of carnitine in other tissues” value (carnitine) was “about 70%”, the “increase in the level of carnitine in some tissues” value (carnitine; significant elevation) was “about 150%” and the “swelling reduction compared to control” value ([1]; after 1 hour) was 40%. For the same substance, the “swelling reduction compared to control” value ([1]; after 2 hours) was 27%, the “swelling reduction compared to control” value ([1]; after 3 hours) was 34% and the IC50 (p38 MAP Kinase) was 36.7 µM. For the same substance, the “protection against UVB-induced cytotoxicity (in words)” value (HaCaT cells) was “protective effect at low concentrations”, the “effect on OVA-induced elevation of peritoneal exudate cellularity (in words)” value [2] was “significantly reduced the elevation” and the “rank order of reduction of peritoneal exudate cellularity” value [2] was “DY-65>DY-70>DY-66”.

With “N-acetyl-Cys-βAla-His-Cys-NH2 (Ac-C[βAla]HC-NH2; cysteine pairing not given here) [DY-66]” the “hind paw swelling compared to control (in words)” value [1] was “Reduced swelling compared to control”, the “ROS levels in platelets and RBCs compared to PBS-treated mice (in words)” value (ROS; 50 mg/kg i.p. days -3,-2,-1 and 150 mg/kg 45 min after LPS) was “significant reduction in ROS levels” and the “ROS level in platelets, % of the level in PBS-treated mice” value (ROS; p<0.005) was “approximately 55%”. The “ROS level in RBCs, % of the level in PBS-treated mice” value (ROS; p<0.05) was “approximately 75%”, the IC50 (p38 MAP Kinase) was 67 µM and the “FeCl binding (in words)” value [3] was “binding was observed”. The “protection against UVB-induced cytotoxicity (in words)” value (HaCaT cells) was “protective effect at low concentrations”, the “effect on OVA-induced elevation of peritoneal exudate cellularity (in words)” value [2] was “significantly reduced the elevation” and the “rank order of reduction of peritoneal exudate cellularity” value [2] was “DY-65>DY-70>DY-66”.

Source: patent US8802635B2, “Antioxidant, anti-inflammatory, anti-radiation, metal chelating compounds and uses thereof” (Oneday—Biotech And Pharma Ltd., priority 2011, dated 2014)
